Measured values published in patent publication US9179679B2, “Synergistic herbicidal composition containing penoxsulam and flazasulfuron” (Dow AgroSciences LLC, priority 2010, dated 2015).

Key:
Format in all cases: in vivo
[1] = system: common groundsel (Senecio vulgaris, SENVU); assay: Postemergence field trial #3, visual weed control in vines; details: 83 to 158 days after application, penoxsulam 7 and/or flazasulfuron 25 grams ai/ha
Method: (§1) These trials were conducted under field conditions in France. Trial sites were located in commercially grown vines of European grape (Vitis vinifera). The grapes were grown using normal cultural practices for fertilization, seeding, and maintenance to ensure good growth of the crop and the weeds. The trials were conducted using normal research methodology. Trial plots were between 2 to 4.5 meters (m) wide by 5.5 to 10 m long. All treatments were applied using a randomized complete block trial design with 3 or 4 replications per treatment. The trial sites had naturally occurring populations of weeds. The weed spectrum included, but was not limited to, black nightshade (Solanum nigrum, SOLNI), pigeongrass or foxtail millet (Setaria sp., SETSS), common lambsquarter (Chenopodium album, CHEAL), round-leaved cranesbill (Geranium rotundifolium, GERRT), common groundsel (Senecio vulgaris, SENVU), mallow (Malva L., MALSS) and common purslane (Portulaca oleracea, POROL).
(§2) Treatments consisted of tank mixes of an oil dispersion of penoxsulam and commercially available formulations of flazasulfuron (Katana herbicide, water dispersible granules) applied in water. The application volumes were between 150-325 liters per hectare (L/ha). All application were made using precision gas hand sprayers using a 2 or 3 m boom using flat fan (80° or 110°) nozzles to broadcast the treatments on the soil.
(§3) The treated plots and control plots were rated blind at various intervals after application. Ratings were based of Percent (%) Visual weed control, where 0 corresponds to no injury and 100 corresponds to complete kill.
(§4) Colby's equation was used to determine the herbicidal effects expected from the mixtures (Colby, S. R. Calculation of the synergistic and antagonistic response of herbicide combinations. Weeds 1967 15, 20-22).
(§5) The following equation was used to calculate the expected activity of mixtures containing two active ingredients, A and B: Expected=A+B−(A×B/100)
(§6) A=observed efficacy of active ingredient A at the same concentration as used in the mixture;
(§7) B=observed efficacy of active ingredient B at the same concentration as used in the mixture.

[2] = system: common purslane (Portulaca oleracea, POROL); assay: as above; details: 83 to 158 days after application, penoxsulam 7 and/or flazasulfuron 25 grams ai/ha
Method: as §1, §2, §3, §4, §5, §6, §7

[3] = system: round-leaved cranesbill (Geranium rotundifolium, GERRT); assay: as above; details: 83 to 158 days after application, penoxsulam 7 and/or flazasulfuron 25 grams ai/ha
Method: as §1, §2, §3, §4, §5, §6, §7

[4] = system: black nightshade (Solanum nigrum, SOLNI); assay: as above; details: 83 to 158 days after application, penoxsulam 7 and/or flazasulfuron 25 grams ai/ha
Method: as §1, §2, §3, §4, §5, §6, §7

[5] = system: pigeongrass or foxtail millet (Setaria sp., SETSS); assay: Postemergence field trial #1, visual weed control in vines; details: 68 to 147 days after application, penoxsulam 7 and/or flazasulfuron 25 grams ai/ha
Method: as §1, §2, §3, §4, §5, §6, §7

[6] = system: common lambsquarter (Chenopodium album, CHEAL); assay: as above; details: 68 to 147 days after application, penoxsulam 7 and/or flazasulfuron 25 grams ai/ha
Method: as §1, §2, §3, §4, §5, §6, §7

[7] = system: black nightshade (Solanum nigrum, SOLNI); assay: as above; details: France, 68 to 147 days after application, penoxsulam 7 and/or flazasulfuron 25 grams ai/ha; for SOLNI (2) Obs - percent control observed: Field trial #1, Echallat; for SOLNI (1) Obs - percent control observed: Field trial #1, Port A Binson
Method: as §1, §2, §3, §4, §5, §6, §7

[8] = system: common groundsel (Senecio vulgaris, SENVU); assay: Postemergence field trial #2, visual weed control in vines; details: 118 to 158 days after application, penoxsulam 7 and/or flazasulfuron 25 grams ai/ha
Method: as §1, §2, §3, §4, §5, §6, §7

[9] = system: common purslane (Portulaca oleracea, POROL); assay: as above; details: 118 to 158 days after application, penoxsulam 7 and/or flazasulfuron 25 grams ai/ha
Method: as §1, §2, §3, §4, §5, §6, §7

mallow (Malva L., MALSS) = assay: as above; details: 118 to 158 days after application, penoxsulam 7 and/or flazasulfuron 25 grams ai/ha
Method: as §1, §2, §3, §4, §5, §6, §7

[10] = system: round-leaved cranesbill (Geranium rotundifolium, GERRT); assay: as above; details: 118 to 158 days after application, penoxsulam 7 and/or flazasulfuron 25 grams ai/ha
Method: as §1, §2, §3, §4, §5, §6, §7

Row | Structure (SMILES) | SENVU Obs - percent control observed [1] [%] | POROL Obs - percent control observed [2] [%] | GERRT Obs - percent control observed [3] [%] | SOLNI Obs - percent control observed [4] [%] | SETSS Obs - percent control observed [5] [%] | CHEAL Obs - percent control observed [6] [%] | SOLNI (2) Obs - percent control observed [7] [%] | SOLNI (1) Obs - percent control observed [7] [%] | SENVU Obs - percent control observed [8] [%] | POROL Obs - percent control observed [9] [%] | MALSS Obs - percent control observed (mallow (Malva L., MALSS)) [%] | GERRT Obs - percent control observed [10] [%]
1 | COc1cnc(OC)n2nc(NS(=O)(=O)c3c(OCC(F)F)cccc3C(F)(F)F)nc12 [Penoxsulam] | 3 | 0 | 13 | 70 | 1 | 0 | 17 | 1 | 3 | 0 | 20 | 13
2 | COc1cc(OC)nc(NC(=O)NS(=O)(=O)c2ncccc2C(F)(F)F)n1 [Flazasulfuron, 1-(4,6-dimethoxypyrimidin-2-yl)-3-(3-trifluoromethyl-2-pyridylsulfonyl)urea] | 30 | 78 | 23 | 1 | 73 | 63 | 58 | 6 | 30 | 78 | 53 | 23
